Experimental data from ChEMBL document CHEMBL1201862, “PubChem BioAssay data set” (2004).
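Results reflect a 48-hour exposure of cells in 96-well plates to compound at five concentrations. Here, GI50 denotes the concentration required for 50% inhibition of growth.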 Activity calls are given as the source filed them. Cut-off read from the data, not from the text of the source: active = GI50 up to about 1.1 µM and inactive = higher.

Legend:
Experiment in all cases: NCI anticancer screen, dose series, 48 h
SNB-75 = test system: SNB-75
NCI-H522 = test system: NCI-H522
SK-MEL-5 = test system: SK-MEL-5
SNB-19 = test system: SNB-19
MDA-MB-435 = test system: MDA-MB-435
OVCAR-5 = test system: OVCAR-5
Malme-3M = test system: Malme-3M
MCF7 = test system: MCF7
A498 = test system: A498
K562 = test system: K562
OVCAR-8 = test system: OVCAR-8
U-251 = test system: U-251
NCI-H23 = test system: NCI-H23
RXF 393 = test system: RXF 393
HCC 2998 = test system: HCC 2998
Hs-578T = test system: Hs-578T
SF-295 = test system: SF-295
SN12C = test system: SN12C
ACHN = test system: ACHN
SW-620 = test system: SW-620
786-0 = test system: 786-0
NCI-H226 = test system: NCI-H226
NCI-H460 = test system: NCI-H460
HT-29 = test system: HT-29
EKVX = test system: EKVX
SF-539 = test system: SF-539
PC-3 = test system: PC-3
T47D = test system: T47D
M14 = test system: M14
NCI/ADR-RES = test system: NCI/ADR-RES
MOLT-4 = test system: MOLT-4
A549 = test system: A549
HOP-62 = test system: HOP-62
DU-145 = test system: DU-145
IGROV-1 = test system: IGROV-1
LOX IMVI = test system: LOX IMVI
SF-268 = test system: SF-268
HCT-15 = test system: HCT-15
OVCAR-4 = test system: OVCAR-4
RPMI-8226 = test system: RPMI-8226
HCT-116 = test system: HCT-116
HOP-92 = test system: HOP-92
HL-60 = test system: HL-60
SR = test system: SR
MDA-N = test system: MDA-N
OVCAR-3 = test system: OVCAR-3
TK-10 = test system: TK-10
UACC-257 = test system: UACC-257
SK-MEL-28 = test system: SK-MEL-28
CCRF-CEM = test system: CCRF-CEM
COLO 205 = test system: COLO 205
UO-31 = test system: UO-31
MDA-MB-231 = test system: MDA-MB-231
CAKI-1 = test system: CAKI-1
UACC-62 = test system: UACC-62
SK-MEL-2 = test system: SK-MEL-2
SK-OV-3 = test system: SK-OV-3
KM12 = test system: KM12

Measured: GI50

C[N+](C)(C)C1(C(=O)[O-])CC1
inactive: SNB-75 > 100 µM | NCI-H522 > 100 µM | SK-MEL-5 > 100 µM | SNB-19 > 100 µM | MDA-MB-435 > 100 µM | OVCAR-5 > 100 µM | Malme-3M > 100 µM | MCF7 > 100 µM | A498 > 100 µM | K562 > 100 µM | OVCAR-8 > 100 µM | U-251 > 100 µM | NCI-H23 > 100 µM | RXF 393 > 100 µM | HCC 2998 > 100 µM | Hs-578T > 100 µM | SF-295 > 100 µM | SN12C > 100 µM | ACHN > 100 µM | SW-620 > 100 µM | 786-0 > 100 µM | NCI-H226 > 100 µM | NCI-H460 > 100 µM | HT-29 > 100 µM | EKVX > 100 µM | SF-539 > 100 µM | PC-3 > 100 µM | T47D 72.1 µM | M14 > 100 µM | NCI/ADR-RES > 100 µM | MOLT-4 > 100 µM | A549 > 100 µM | HOP-62 > 100 µM | DU-145 > 100 µM | IGROV-1 > 100 µM | LOX IMVI > 100 µM | SF-268 > 100 µM | OVCAR-4 > 100 µM | RPMI-8226 > 100 µM | HCT-116 > 100 µM | HOP-92 > 100 µM | HL-60 > 100 µM | SR > 100 µM | MDA-N > 100 µM | OVCAR-3 > 100 µM | TK-10 > 100 µM | UACC-257 > 100 µM | SK-MEL-28 > 100 µM | CCRF-CEM > 100 µM
> 100 µM: HCT-15

S=C=Nc1ccc(CSc2nc3ccccc3[nH]2)cc1
inactive: SNB-75 12.9 µM | NCI-H522 4.25 µM | SK-MEL-5 15.9 µM | SNB-19 25.9 µM | MDA-MB-435 17.5 µM | OVCAR-5 18.2 µM | Malme-3M 17.6 µM | COLO 205 15.5 µM | A498 23 µM | K562 39.4 µM | OVCAR-8 17.8 µM | U-251 17.1 µM | NCI-H23 17.6 µM | RXF 393 16.4 µM | HCC 2998 18.1 µM | Hs-578T 41.6 µM | SF-295 17.3 µM | SN12C 17.5 µM | ACHN 14.3 µM | SW-620 17.3 µM | 786-0 19.9 µM | UO-31 19.5 µM | NCI-H460 20.8 µM | HT-29 18.4 µM | EKVX 20 µM | SF-539 18.8 µM | PC-3 17.9 µM | T47D 15.2 µM | NCI/ADR-RES 18 µM | MOLT-4 23.7 µM | A549 17.1 µM | MDA-MB-231 23.3 µM | CAKI-1 17.7 µM | HOP-62 17.5 µM | DU-145 16.1 µM | IGROV-1 18.2 µM | UACC-62 15.8 µM | LOX IMVI 17.2 µM | SF-268 17 µM | OVCAR-4 17.3 µM | RPMI-8226 23.2 µM | HCT-116 24 µM | HOP-92 16.8 µM | HL-60 36.5 µM | SK-MEL-2 18.9 µM | SK-OV-3 21.6 µM | SR 20.7 µM | MDA-N 15.9 µM | TK-10 20.1 µM | UACC-257 19.3 µM | KM12 17.5 µM | SK-MEL-28 18.7 µM | CCRF-CEM 29.5 µM
15 µM: HCT-15
